According to patent US10519211B2, “Compounds as peptidic GLP1/glucagon/GIP receptor agonists” (SANOFI, priority 2016, dated 2019):
Numbered stars: 1 amine (or outer) side, 2 acyl side, 3 side chain; on linkers, the order of the positions; unused ones are H or OH. Square brackets hold non-standard residues; d marks the D form. Side chains are listed from the residue outwards. Peptide text beside a SMILES is read from it. * marks the point of attachment. γGlu = O=C(O)[C@H](CCC(=O)[*:2])N[*:1]; Palmitoyl = CCCCCCCCCCCCCCCC(=O)*; Aib = CC(C)(N)C(=O)O

System: female diet-induced obese (DIO) C57BL/6NHsd mice
Test: Acute and chronic effects after subcutaneous treatment in female diet-induced obese (DIO) mice
Type: in vivo, mouse
Conditions: for Body mass compared to the DIO-Vehicle group / Whole body fat mass compared to the DIO-Vehicle group / Plasma insulin concentrations compared to DIO vehicle / Plasma total cholesterol concentrations compared to DIO vehicle / Liver mass on day 28 compared to DIO animals treated with vehicle / Plasma alanine aminotransferase concentration on day 28 compared to DIO vehicle: 30 μg/kg s.c. twice daily; for Body mass compared to the DIO-Vehicle group / Whole body fat mass compared to the DIO-Vehicle group / Body mass change: 28 days; for Body mass compared to the DIO-Vehicle group / Whole body fat mass compared to the DIO-Vehicle group / Plasma insulin concentrations compared to DIO vehicle / Plasma total cholesterol concentrations compared to DIO vehicle / Liver mass on day 28 compared to DIO animals treated with vehicle / Plasma alanine aminotransferase concentration on day 28 compared to DIO vehicle / 24 hour blood glucose profile following first treatment: in words; for Plasma insulin concentrations compared to DIO vehicle / Plasma total cholesterol concentrations compared to DIO vehicle: day 28; for 24 hour blood glucose profile following first treatment: 30 μg/kg s.c., day 1, fed DIO mice, vs DIO control; for Body mass change / Whole body fat mass change / Terminal liver mass (g) / Terminal plasma alanine aminotransferase (U/L) / Terminal plasma insulin (U/L) / Terminal plasma total cholesterol (mmol/L): twice-daily 30 μg/kg s.c.; for Body mass change: mean ± SEM; for Whole body fat mass change: QNMR predose vs day 26, mean ± SEM; for Terminal liver mass (g) / Terminal plasma alanine aminotransferase (U/L) / Terminal plasma insulin (U/L) / Terminal plasma total cholesterol (mmol/L): day 28, mean ± SEM
Procedure: Female C57BL/6NHsd mice were ordered group housed from Envigo RMS Inc., shipped group housed and remained group housed with shipped cage mates in shoebox caging with wood chip bedding until day 38 of the predose phase. At the study start mice were between 25-26 weeks old.
Mice were housed under vivarium conditions that included a 12 h light/dark cycle (light phase 04:00 AM-4:00 PM), room temperatures between 23-26° C. and a relative humidity between 30-70%. All animals had free access to water and a high fat diet (TD97366) for 16 weeks prior to pharmacological intervention (dosing phase). Feed was replaced with fresh feed weekly until and for the last time on day 38 of the predose phase. During the subsequent dosing phase, approximately 50% of the remaining feed were removed, replaced with fresh feed, and pellets were mixed evenly once per week.
On predose day 38, obese DIO mice were assigned to treatment groups (n=8) to match mean body masses between all DIO groups. An age-matched group with ad libitum access to a rodent maintenance diet (Teklad Global Diets Rodent 2014, pelleted) was included in the study as a lean control group. In the predosing phase from day 32 through 38, all study animals were treated with vehicle (Phosphate Buffered Saline, PBS, Gibco, without CaCl2 and MgCl2) once daily (s.c. approximately 0.2 mL/mouse).
On day 37 of the predose phase, the test article was diluted with PBS to a concentration of 100 μg/mL and aliquots of this stock solution were stored at approximately ≤−60° C. Stock aliquots were thawed for weekly use and thereafter stored in a refrigerator at approximately 4° C. The injected test article solution was prepared fresh once on each dosing day by diluting stock solution with PBS to achieve the desired concentration.
Mice were treated twice daily with a s.c. injection of PBS-vehicle or the test article for 28 days. The morning dosing was initiated and completed between 06:00 and 07:30 AM and the afternoon dosing between 2:00 and 3:30 PM. On day 28 of the dosing phase only the morning dose was administered. The applied volume was 5 ml/kg and the dose was adjusted to the most recent body mass recording of each individual.
Animals had unlimited access to water and feed during the experiment. On day 1 of the dosing phase approximately 5 μL of blood were collected via tail clips at hour 0, prior to the first s.c. dose of PBS-vehicle or test-article as well as 1, 2, 3, 4, 6, and 24 hours post-dose. Animals received the second s.c. dose of PBS-vehicle or test-article 8 hours after the first dose. The 24 hour blood collection of the blood glucose profile was performed prior to dosing on day 2. Glucose measurements were performed in whole blood and in duplicate or triplicate using Aviva glucometers.
Body mass was measured daily approximately between 06:00-07:30 AM from day 32 through 38 of the predosing phase and throughout the 28 days of the dosing phase. During the dosing phase mice were treated twice daily with either a s.c. injection of PBS-vehicle or test article.
To determine whole body fat mass Quantitative Nuclear Magnetic Resonance (QNMR) measurements were performed on predosing day 37 and on day 26 of the dosing phase. During the dosing phase mice were treated twice daily with either a s.c. injection of PBS-vehicle or test article.
On day 28 blood was collected prior to any other inlife activities for determination of plasma insulin concentrations. Then the morning dose was administered and necropsy was performed 4 hours post-dose. For this purpose animals were anesthetized with isoflurane and blood was collected by orbital bleeding.
On day 28 and 4 hours after the morning dose, blood was collected from mice under isoflurane anesthesia as described above. Then mice were killed and livers were collected and weighed.
Data are depicted as means±SEM. […] A One-Way ANOVA and Tukey Test were used for pairwise multiple comparisons of all groups (n=8/group, deviations from group size are indicated). […]

Structure (SMILES) | Body mass compared to the DIO-Vehicle group | Whole body fat mass compared to the DIO-Vehicle group | Plasma insulin concentrations compared to DIO vehicle | Plasma total cholesterol concentrations compared to DIO vehicle | Liver mass on day 28 compared to DIO animals treated with vehicle | Plasma alanine aminotransferase concentration on day 28 compared to DIO vehicle | 24 hour blood glucose profile following first treatment | Body mass change (Table 9) | Whole body fat mass change (Table 9) | Terminal liver mass (g) (Table 9) | Terminal plasma alanine aminotransferase (U/L) (Table 9) | Terminal plasma insulin (U/L) (Table 9) | Terminal plasma total cholesterol (mmol/L) (Table 9) | Body mass change (Table 11) | Whole body fat mass change (Table 11) | Terminal liver mass (g) (Table 11) | Terminal plasma alanine aminotransferase (U/L) (Table 11) | Terminal plasma insulin (U/L) (Table 11) | Terminal plasma total cholesterol (mmol/L) (Table 11)
CCCCCCCCCCCCCCCC(=O)N[C@@H](CCC(=O)N[C@@H](CCC(=O)NCCCC[C@H](NC(=O)[C@H](CC(C)C)NC(=O)[C@H](CCCCN)NC(=O)[C@H](CO)NC(=O)[C@H](CC(C)C)NC(=O)[C@H](CC(=O)O)NC(=O)[C@H](CO)NC(=O)[C@@H](NC(=O)[C@H](Cc1ccccc1)NC(=O)[C@@H](NC(=O)CNC(=O)[C@H](CCC(N)=O)NC(=O)C(C)(C)NC(=O)[C@@H](N)Cc1c[nH]cn1)[C@@H](C)O)[C@@H](C)O)C(=O)N[C@@H](CCC(=O)O)C(=O)N[C@@H](CCCCN)C(=O)N[C@@H](CCC(N)=O)C(=O)N[C@@H](CCCNC(=N)N)C(=O)N[C@@H](CCC(N)=O)C(=O)NC(C)(C)C(=O)N[C@@H](CCC(=O)O)C(=O)N[C@@H](Cc1ccccc1)C(=O)N[C@H](C(=O)N[C@@H](CCC(=O)O)C(=O)N[C@@H](Cc1c[nH]c2ccccc12)C(=O)N[C@@H](CC(C)C)C(=O)N[C@@H](CCCCN)C(=O)N[C@@H](C)C(=O)NCC(=O)NCC(=O)N1CCC[C@H]1C(=O)N1CCC[C@H]1C(=O)N[C@@H](CO)C(=O)NC(C)(C)C(=O)N[C@@H](CCCCN)C(=O)N1CCC[C@H]1C(=O)N1CCC[C@H]1C(=O)N1CCC[C@H]1C(=O)N[C@@H](CCCCN)C(N)=O)[C@@H](C)CC)C(=O)O)C(=O)O [SEQ ID NO: 6, H-Aib-Q-G-T-F-T-S-D-L-S-K-L-K[gGlu-gGlu-Palm]-E-K-Q-R-Q-Aib-E-F-I-E-W-L-K-A-G-G-P-P-S-Aib-K-P-P-P-K-NH2] | statistically significant decrease in body mass | statistically significantly reduction in whole body fat mass | statistically significant reduction in plasma insulin concentrations | statistically significant reduction in plasma total cholesterol concentrations | statistically significantly lower liver mass | statistically significantly lower plasma alanine aminotransferase concentration | decrease in blood glucose concentrations below concentrations observed in DIO control mice | -5.36 ± 0.36 g | -4.33 ± 0.42 g | +1.16 ± 0.04 g | +62.25 ± 9.79 U/L | +31.07 ± 5.26 U/L | +5.11 ± 0.12 mmol/L | – | – | – | – | – | –
CCCCCCCCCCCCCCCC(=O)N[C@@H](CCC(=O)N[C@@H](CCC(=O)NCCCC[C@H](NC(=O)[C@H](CC(C)C)NC(=O)[C@H](CCCCN)NC(=O)[C@H](CO)NC(=O)[C@H](CC(C)C)NC(=O)[C@H](CC(=O)O)NC(=O)[C@H](CO)NC(=O)[C@@H](NC(=O)[C@H](Cc1ccccc1)NC(=O)[C@@H](NC(=O)CNC(=O)[C@H](CCC(N)=O)NC(=O)C(C)(C)NC(=O)[C@@H](N)Cc1c[nH]cn1)[C@@H](C)O)[C@@H](C)O)C(=O)N[C@@H](CCC(=O)O)C(=O)N[C@@H](CCC(=O)O)C(=O)N[C@@H](CCC(N)=O)C(=O)N[C@@H](CCCNC(=N)N)C(=O)N[C@@H](CCC(N)=O)C(=O)NC(C)(C)C(=O)N[C@@H](CCC(=O)O)C(=O)N[C@@H](Cc1ccccc1)C(=O)N[C@H](C(=O)N[C@@H](CCC(=O)O)C(=O)N[C@@H](Cc1c[nH]c2ccccc12)C(=O)N[C@@H](CC(C)C)C(=O)N[C@@H](CCCCN)C(=O)N[C@@H](C)C(=O)NCC(=O)NCC(=O)N[C@@H](Cc1c[nH]cn1)C(=O)N1CCC[C@H]1C(=O)N[C@@H](CO)C(=O)NC(C)(C)C(=O)N[C@@H](CCCCN)C(=O)N1CCC[C@H]1C(=O)N1CCC[C@H]1C(=O)N1CCC[C@H]1C(=O)N[C@@H](CCCCN)C(N)=O)[C@@H](C)CC)C(=O)O)C(=O)O [SEQ ID NO: 8, H-Aib-Q-G-T-F-T-S-D-L-S-K-L-K[gGlu-gGlu-Palm]-E-E-Q-R-Q-Aib-E-F-I-E-W-L-K-A-G-G-H-P-S-Aib-K-P-P-P-K-NH2] | statistically significant decrease in body mass | statistically significantly reduction in whole body fat mass | statistically significant reduction in plasma insulin concentrations | statistically significant reduction in plasma total cholesterol concentrations | statistically significantly lower liver mass | statistically significantly lower plasma alanine aminotransferase concentration | decrease in blood glucose concentrations below concentrations observed in DIO control mice | – | – | – | – | – | – | -8.23 ± 0.62 g | -6.65 ± 0.38 g | +1.08 ± 0.03 g | +68.88 ± 15.05 U/L | +39.70 ± 4.25 U/L | +4.36 ± 0.08 mmol/L
CCCCCCCCCCCCCCCC(=O)N[C@@H](CCC(=O)N[C@@H](CCC(=O)NCCCC[C@H](NC(=O)[C@H](CC(C)C)NC(=O)[C@H](CCCCN)NC(=O)[C@H](CO)NC(=O)[C@H](CC(C)C)NC(=O)[C@H](CC(=O)O)NC(=O)[C@H](CO)NC(=O)[C@@H](NC(=O)[C@H](Cc1ccccc1)NC(=O)[C@@H](NC(=O)CNC(=O)[C@H](CCC(N)=O)NC(=O)C(C)(C)NC(=O)[C@@H](N)Cc1c[nH]cn1)[C@@H](C)O)[C@@H](C)O)C(=O)N[C@@H](CCC(=O)O)C(=O)N[C@@H](CCCCN)C(=O)N[C@@H](CCC(N)=O)C(=O)N[C@@H](CCCNC(=N)N)C(=O)N[C@@H](CCC(N)=O)C(=O)NC(C)(C)C(=O)N[C@@H](CCC(=O)O)C(=O)N[C@@H](Cc1ccccc1)C(=O)N[C@H](C(=O)N[C@@H](CCC(=O)O)C(=O)N[C@@H](Cc1c[nH]c2ccccc12)C(=O)N[C@@H](CC(C)C)C(=O)N[C@@H](CCCCN)C(=O)N[C@@H](C)C(=O)N[C@H](C)C(=O)NCC(=O)N1CCC[C@H]1C(=O)N1CCC[C@H]1C(=O)N[C@@H](CO)C(=O)NC(C)(C)C(=O)N[C@@H](CCCCN)C(=O)N1CCC[C@H]1C(=O)N1CCC[C@H]1C(=O)N1CCC[C@H]1C(=O)N[C@@H](CCCCN)C(N)=O)[C@@H](C)CC)C(=O)O)C(=O)O [SEQ ID NO: 7, H-Aib-Q-G-T-F-T-S-D-L-S-K-L-K[gGlu-gGlu-Palm]-E-K-Q-R-Q-Aib-E-F-I-E-W-L-K-A-dAla-G-P-P-S-Aib-K-P-P-P-K-NH2] (H-H[Aib]QGTFTSDLSKLK([γGlu-γGlu-Palmitoyl])EKQRQ[Aib]EFIEWLKA[dA]GPPS[Aib]KPPPK-NH2) | statistically significant decrease in body mass | statistically significantly reduction in whole body fat mass | statistically significant reduction in plasma insulin concentrations | statistically significant reduction in plasma total cholesterol concentrations | statistically significantly lower liver mass | statistically significantly lower plasma alanine aminotransferase concentration | decrease in blood glucose concentrations below concentrations observed in DIO control mice | -5.58 ± 0.60 g | -4.46 ± 0.50 g | +1.14 ± 0.04 g | +47.63 ± 6.76 U/L | +58.04 ± 6.33 U/L | +4.19 ± 0.15 mmol/L | – | – | – | – | – | –
